Results as given in patent US20030050248A1 (priority 2000, published 2003).
≈ marks a conversion by molar mass, not a printed value. Where two headings read alike, the source gives them in different places. Ends that are not written are not given here. Peptide text beside a SMILES is read from it. * marks the point of attachment. Fmoc = O=C(OCC1c2ccccc2-c2ccccc21)*; X1 = O=C(Sc1ccccc1)*

Key:
[1] = system: S. epidermidis (51625); assay type: cell-based
[2] = system: S. haemolyticus; assay type: cell-based
[3] = system: S. aureus; assay type: cell-based
[4] = system: RNAIII; assay type: cell-based, S. aureus
[5] = system: S. aureus
[6] = system: S. warneri
[7] = system: S. aureus; assay: Mouse model, Staph mixed with drug prior to IP injection; assay type: in vivo, mice; conditions: for % Survival at 24 hr.: mixed with Staph prior to IP injection; for Number of mice that survived at 24 hours post-injection (in words): VIF-1 3 or 15 mg/kg, FTB 1, 2 or 5 mg/kg
Method: (§1) The assay was carried out by injecting a fixed amount of a S. aureus culture, typically containing from about 5×10^9 cells from an early exponential growth stage culture, by intraperitoneal (IP) injection into mice, based on the method described by Thakker et al., 1998.
In one study, the S. aureus was mixed with VIF-1 or FTB, prior to IP injection.

[8] = system: S. aureus; assay: Mouse model, Staph injected IP 20 min prior to drug injection (IP); assay type: in vivo, mice; conditions: for % Survival at 24 hr.: 20 min after Staph; for Number of mice that survived at 24 hours post-injection relative to vehicle (in words): VIF-1 20 or 15 mg/kg, FTB 10 mg/kg
Method: as §1
In another approach, S. aureus was injected IP 20 minutes prior to IP injection of VIF-1 or FTB.
The commonly used anti-Staphylococcal antibiotics, methicillin and vancomycin, were tested in this model.

[9] = system: S. aureus; assay: microbe, parasite or virus in culture; conditions: Staphylococcus aureus, Erythrocyte, in Oryctolagus cuniculus
[10] = system: RNAIII; conditions: reported by Balaban et al., 1998; cited from earlier work

Molecule	IC50, α-toxin production [1]	IC50, α-toxin production [2]	Inhibition of TSST-1 [3]	Inhibition of RNA III activation [4]	Inhibition of α-Hemolysin production [5]	Inhibition of α-toxin production (in words) [5]	IC50, α-toxin production [6]	further results
O=C(Nc1ccccc1C(=O)O)OCC1c2ccccc2-c2ccccc21 [Reference #4, Fmoc-2-aminobenzoic acid]	0.5 µg/mL (≈ 1.39 µM)	0.7 µg/mL (≈ 1.95 µM)	2.0 µg/mL	2.9 (3) μg/ml	0.9 (5) μg/ml	inhibited α-toxin production	0.6 µg/mL (≈ 1.67 µM)	
O=C(O)[C@H]1c2ccccc2CCN1C(=O)OCC1c2ccccc2-c2ccccc21 [Reference #16]	0.5 µg/mL (≈ 1.25 µM)	0.6 µg/mL (≈ 1.5 µM)	4.0 µg/mL	3.5 (3) μg/ml	1.3 (3) μg/ml	inhibited α-toxin production	0.6 µg/mL (≈ 1.5 µM)	
O=C(N[C@@H](Cc1cn(C(c2ccccc2)(c2ccccc2)c2ccccc2)cn1)C(=O)O)OCC1c2ccccc2-c2ccccc21 [Reference #29, Fmoc-L-His(Trt)-OH]			4.0 µg/mL	3.7 (3) μg/ml	2.7 (3) μg/ml			
CC(C)(C)OC(=O)n1cc(C[C@H](NC(=O)OCC2c3ccccc3-c3ccccc32)C(=O)O)c2ccccc21 [Reference #35, Fmoc-L-Trp(Boc)-OH]	0.5 µg/mL (≈ 0.95 µM)	0.6 µg/mL (≈ 1.14 µM)	5.0 µg/mL	1.4 µg/mL	1.2 (13) μg/ml	inhibited α-toxin production	0.6 µg/mL (≈ 1.14 µM)	% Survival at 24 hr. ([7]; 0.2 mg/kg): 0%; % Survival at 24 hr. ([7]; 1 mg/kg): 83%; % Survival at 24 hr. ([7]; 2 mg/kg): 67%; % Survival at 24 hr. ([7]; 5 mg/kg): 83%; Number of mice that survived at 24 hours post-injection (in words) [7]: effective to significantly increase the number of mice that survived; % Survival at 24 hr. ([8]; 2 mg/kg IP): 25%; % Survival at 24 hr. ([8]; 10 mg/kg IP): 71%; Number of mice that survived at 24 hours post-injection relative to vehicle (in words) [8]: effective to significantly increase the number of mice that survived; IC50, α-toxin production [5]: 0.8 µg/mL (≈ 1.52 µM)
N[C@@H](Cc1c[nH]c2ccccc12)C(=O)O [Reference #46, H-L-Trp-OH]			>10.0 µg/mL	>10.0 (3) μg/ml				
O=C(N[C@@H](Cc1cccs1)C(=O)O)OCC1c2ccccc2-c2ccccc21 [Reference #83, Fmoc-beta-(2-thienyl)-L-alanine]								IC50 ([9]; read-out: IC50 (relative activity), text b100/b101, assay not named, values match the α-hemolysin column of Table 4): 25 µg/mL (≈ 63.5 µM); IC50 ([9]; read-out: Inhibition of α-Hemolysin production, Table 4, (n) in cell = number of determinations): 25 µg/mL (≈ 63.5 µM)
O=C(NC1(C(=O)O)CCCCC1)OCC1c2ccccc2-c2ccccc21 [Reference #86, Fmoc-1-amino-1-cyclohexane carboxylic acid]	0.4 µg/mL (≈ 1.09 µM)	0.6 µg/mL (≈ 1.64 µM)	10.0 µg/mL	3.0 (3) μg/ml	2.1 (3) μg/ml	inhibited α-toxin production	0.6 µg/mL (≈ 1.64 µM)	
O=C(O)[C@@H]1CC[C@H](c2ccccc2)N1C(=O)OCC1c2ccccc2-c2ccccc21 [Reference #113, (2S,5R)-Fmoc-5-phenyl-pyrrolidine-2-carboxylic acid]	0.5 µg/mL (≈ 1.21 µM)	0.7 µg/mL (≈ 1.69 µM)	6.0 µg/mL	3.0 (1) μg/ml	1.7 (5) μg/ml	inhibited α-toxin production	0.6 µg/mL (≈ 1.45 µM)	IC50, α-toxin production [5]: 0.9 µg/mL (≈ 2.18 µM)
O=C(N[C@@H](C/C=C/c1ccccc1)C(=O)O)OCC1c2ccccc2-c2ccccc21 [Reference #124, Fmoc-L-styrylalanine]	0.6 µg/mL (≈ 1.45 µM)	0.5 µg/mL (≈ 1.21 µM)	10.0 µg/mL	2.9 (1) μg/ml	2.0 (4) μg/ml	inhibited α-toxin production	0.7 µg/mL (≈ 1.69 µM)	
C[C@@H](O)[C@H](NC(=O)[C@H](Cc1cn(C(=O)Sc2ccccc2)c2ccccc12)NC(=O)[C@@H]1CCCN1C(=O)[C@H](CO)NC(=O)[C@H](Cc1ccc(O)cc1)NC(=O)OCC1c2ccccc2-c2ccccc21)C(=O)N[C@@H](CC(N)=O)C(=O)N[C@@H](Cc1ccccc1)C(=O)O [VIF-1, (Fmoc-Tyr)-Ser-Pro-Trp(phenylthiocarbamate)-Thr-Asn-Phe] (Fmoc-YSPW(X1)TNF-OH; C-terminus assumed)				1.5 µg/mL	1.1 µg/mL	inhibited α-toxin production	0.1 µg/mL (≈ 0.0786 µM)	Lowest concentration that suppressed release of TSST-1 [3]: 0.2 µg/mL; % Survival at 24 hr. ([7]; 1 mg/kg): 67%; % Survival at 24 hr. ([7]; 3 mg/kg): 83%; % Survival at 24 hr. ([7]; 15 mg/kg): 83%; Number of mice that survived at 24 hours post-injection (in words) [7]: effective to significantly increase the number of mice that survived; % Survival at 24 hr. ([8]; 6 mg/kg IP): 13%; % Survival at 24 hr. ([8]; 15 mg/kg IP): 50%; % Survival at 24 hr. ([8]; 20 mg/kg IP): 67%; Number of mice that survived at 24 hours post-injection relative to vehicle (in words) [8]: effective to significantly increase the number of mice that survived; IC50, α-toxin production [5]: 0.6 µg/mL (≈ 0.472 µM); IC50 for inhibition of hemolysin production [6]: 0.10 µg/mL; Inhibition of hemolysin production (in words) [6]: potently inhibited
ProCysThrAsnPhe (PCTNF; printed: ProCysThrAsnPhe) [peptide 1]								Inhibition of induction of RNAIII (in words) [10]: inactive
YSPWTNF [PEP, reference compound]								Inhibition of RNAIII induction (in words) [4]: no significant activity; Inhibition of α-toxin / virulence factor production (in words) [5]: no significant activity; Inhibition of induction of RNAIII (in words) [10]: inhibit induction of RNAIII as effectively as RIP
